Tests used:
Experiment in all cases: Post-emergence glasshouse spray test, visual percentage phytotoxicity after 13 days
Assay type in all cases: in vivo
[1] = tested on: Chenopodium album (CHEAL); conditions: B1
Protocol: (§1) Seeds of Setaria faberi (SETFA), Echinochloa crus-galli (ECHCG), Digitaria sanguinalis (DIGSA), Lolium perenne (LOLPE), Alopecurus myosuroides (ALOMY), Chenopodium album (CHEAL), Ipomoea hederacea (IPOHE), Stellaria media (STEME), Abutilon threophrasti (ABUTH), Amaranthus retroflexus (AMARE) were sown in standard sterilised soil in pots. After cultivation for 8 days under controlled conditions in a glasshouse (at 24/19° C., day/night; 16 hours light; no humidity control), the plants were sprayed at 500 l/Ha with an aqueous spray solution derived from the formulation of the technical active ingredients in a small amount of acetone and a solvent and emulsifier mixture referred to as IF50 (11.12% Emulsogen EL360™+44.44% N-methylpyrrolidone+44.44% Dowanol DPM glycol ether), to create a 50 g/l solution which was then diluted using 0.2% Genapol XO80 (CAS Number: 9043-30-5) as diluent to give the desired final dose of test compound.
(§2) Where active ingredients were applied as mixtures, aqueous spray solutions were prepared as above, containing both active ingredients.
(§3) The test plants were then grown under controlled conditions in a glasshouse (at 24/18° C., day/night; 15 hours light; 50% humidity) and watered twice daily. After 13 days, the test was evaluated visually for percentage phytotoxicity to the plants (where 100=total damage to plant; 0=no damage to plant; and NC=not captured) when compared to control untreated plants. Two to four replicates were applied for each treatment in a randomised block test design.
(§4) 22., E=X+Y−(X*Y/100), where
(§5) X=average percent phytotoxicity of herbicide A when applied at a certain rate Y=average percent phytotoxicity using herbicide B when applied at a certain rate E=the expected effect of the mixture of herbicides A and B as calculated from the Colby formula.

[2] = tested on: Abutilon threophrasti (ABUTH); conditions: B1
Protocol: as §1, §2, §3, §4, §5

[3] = tested on: Digitaria sanguinalis (DIGSA); conditions: for DIGSA percentage phytotoxicity: B1
Protocol: as §1, §2, §3, §4, §5

Lolium perenne (LOLPE) = conditions: for LOLPE percentage phytotoxicity: B1
Protocol: as §1, §2, §3, §4, §5

[4] = tested on: Ipomoea hederacea (IPOHE); conditions: B1
Protocol: as §1, §2, §3, §4, §5

[5] = tested on: Amaranthus retroflexus (AMARE); conditions: B1
Protocol: as §1, §2, §3, §4, §5

[6] = tested on: Alopecurus myosuroides (ALOMY); conditions: B1
Protocol: as §1, §2, §3, §4, §5

Setaria faberi (SETFA) = conditions: B1
Protocol: as §1, §2, §3, §4, §5

Stellaria media (STEME) = conditions: B1
Protocol: as §1, §2, §3, §4, §5

COc1c(Cl)ccc(-c2nc(C(=O)OCc3ccccc3)c(Cl)c(N)c2F)c1F [B-I]
CHEAL percentage phytotoxicity ([1]; 0.625 g/ha post-emergence): 63%
CHEAL percentage phytotoxicity ([1]; 1.25 g/ha post-emergence): 63%
CHEAL percentage phytotoxicity ([1]; 2.5 g/ha post-emergence): 60%
CHEAL percentage phytotoxicity ([1]; 5 g/ha post-emergence): 70%
CHEAL percentage phytotoxicity ([1]; 10 g/ha post-emergence): 75%
ABUTH percentage phytotoxicity ([2]; 0.625 g/ha post-emergence): 75%
ABUTH percentage phytotoxicity ([2]; 1.25 g/ha post-emergence): 83%
ABUTH percentage phytotoxicity ([2]; 2.5 g/ha post-emergence): 80%
ABUTH percentage phytotoxicity ([2]; 5 g/ha post-emergence): 80%
ABUTH percentage phytotoxicity ([2]; 10 g/ha post-emergence): 85%
DIGSA percentage phytotoxicity ([3]; 0.625 g/ha post-emergence): 0%
DIGSA percentage phytotoxicity ([3]; 1.25 g/ha post-emergence): 3%
DIGSA percentage phytotoxicity ([3]; 2.5 g/ha post-emergence): 5%
DIGSA percentage phytotoxicity ([3]; 5 g/ha post-emergence): 0%
DIGSA percentage phytotoxicity ([3]; 10 g/ha post-emergence): 10%
Observed phytotoxicity DIGSA ([3]; B2.5.1, 5 g/ha post-emergence): 0%
LOLPE percentage phytotoxicity (Lolium perenne (LOLPE); 0.625 g/ha post-emergence): 0%
LOLPE percentage phytotoxicity (Lolium perenne (LOLPE); 1.25 g/ha post-emergence): 0%
LOLPE percentage phytotoxicity (Lolium perenne (LOLPE); 2.5 g/ha post-emergence): 0%
LOLPE percentage phytotoxicity (Lolium perenne (LOLPE); 5 g/ha post-emergence): 0%
LOLPE percentage phytotoxicity (Lolium perenne (LOLPE); 10 g/ha post-emergence): 5%
Observed phytotoxicity LOLPE (Lolium perenne (LOLPE); B2.5.2, 5 g/ha post-emergence): 0%
IPOHE percentage phytotoxicity ([4]; 0.625 g/ha post-emergence): 13%
IPOHE percentage phytotoxicity ([4]; 1.25 g/ha post-emergence): 33%
IPOHE percentage phytotoxicity ([4]; 2.5 g/ha post-emergence): 58%
IPOHE percentage phytotoxicity ([4]; 5 g/ha post-emergence): 55%
IPOHE percentage phytotoxicity ([4]; 10 g/ha post-emergence): 53%
AMARE percentage phytotoxicity ([5]; 0.625 g/ha post-emergence): 53%
AMARE percentage phytotoxicity ([5]; 1.25 g/ha post-emergence): 58%
AMARE percentage phytotoxicity ([5]; 2.5 g/ha post-emergence): 65%
AMARE percentage phytotoxicity ([5]; 5 g/ha post-emergence): 58%
AMARE percentage phytotoxicity ([5]; 10 g/ha post-emergence): 70%
ALOMY percentage phytotoxicity ([6]; 0.625 g/ha post-emergence): 0%
ALOMY percentage phytotoxicity ([6]; 1.25 g/ha post-emergence): 0%
ALOMY percentage phytotoxicity ([6]; 2.5 g/ha post-emergence): 0%
ALOMY percentage phytotoxicity ([6]; 5 g/ha post-emergence): 0%
ALOMY percentage phytotoxicity ([6]; 10 g/ha post-emergence): 3%
SETFA percentage phytotoxicity (Setaria faberi (SETFA); 0.625 g/ha post-emergence): 0%
SETFA percentage phytotoxicity (Setaria faberi (SETFA); 1.25 g/ha post-emergence): 0%
SETFA percentage phytotoxicity (Setaria faberi (SETFA); 2.5 g/ha post-emergence): 5%
SETFA percentage phytotoxicity (Setaria faberi (SETFA); 5 g/ha post-emergence): 3%
SETFA percentage phytotoxicity (Setaria faberi (SETFA); 10 g/ha post-emergence): 20%
STEME percentage phytotoxicity (Stellaria media (STEME); 0.625 g/ha post-emergence): 50%
STEME percentage phytotoxicity (Stellaria media (STEME); 1.25 g/ha post-emergence): 58%
STEME percentage phytotoxicity (Stellaria media (STEME); 2.5 g/ha post-emergence): 75%
STEME percentage phytotoxicity (Stellaria media (STEME); 5 g/ha post-emergence): 70%
STEME percentage phytotoxicity (Stellaria media (STEME); 10 g/ha post-emergence): 85%

Reference: US20230389548A1, “MIXTURES OF PYRIMIDINES AS HERBICIDAL COMPOSITIONS” (SYNGENTA CROP PROTECTION AG, priority 2020, published 2023)
